{
  "source": "ChEMBL document CHEMBL1135088",
  "about": "“Minimal structural requirements for agonist activity of PAR-2 activating peptides” (Bioorg Med Chem Lett, 2002)",
  "note": "Non-standard residues stand in square brackets, D forms with d. Residues, ends and D or L forms follow the SMILES beside them. *: point of attachment. Arg(NO2) = N=C(NCCC[C@H](N)C(=O)O)N[N+](=O)[O-]; Bz = O=C(c1ccccc1)*",
  "data": [
    {"species_on_record": "Rattus norvegicus", "assay": "In vitro vasorelaxant activity in male wistar rat thoracic aorta by classical rat aorta relaxation assay; n.a.=not active up to a concentration of 3e-4 M; call rule not given here", "assay_type": "functional", "values": [
      {"smiles": "CC(C)C[C@H](NC(=O)[C@H](CCC/N=C(\\N)N[N+](=O)[O-])NC(=O)C1CCCCC1)C(N)=O", "EC50": "Not Active"},
      {"smiles": "CC(C)C[C@H](NC(=O)[C@H](CCC/N=C(\\N)N[N+](=O)[O-])NC(=O)c1ccc(C(F)(F)F)cc1)C(N)=O", "EC50": "Not Active"},
      {"smiles": "CC(C)C[C@H](NC(=O)[C@H](CCC/N=C(\\N)N[N+](=O)[O-])NC(=O)c1ccc(Cl)cc1)C(N)=O", "EC50": "Not Active"},
      {"smiles": "CC(C)C[C@H](NC(=O)[C@H](CCC/N=C(\\N)N[N+](=O)[O-])NC(=O)c1ccc([N+](=O)[O-])cc1)C(N)=O", "EC50": "Not Active"},
      {"smiles": "CC(C)C[C@H](NC(=O)[C@H](CCC/N=C(\\N)N[N+](=O)[O-])NS(=O)(=O)c1ccccc1)C(N)=O", "EC50": "Not Active"},
      {"smiles": "CSc1ccc(C(=O)N[C@@H](CCC/N=C(\\N)N[N+](=O)[O-])C(=O)N[C@@H](CC(C)C)C(N)=O)cc1", "EC50": "Not Active"},
      {"smiles": "CC(C)C[C@H](NC(=O)[C@H](CCC/N=C(\\N)N[N+](=O)[O-])NC(=O)c1ccc(C#N)cc1)C(N)=O", "EC50": "Not Active"},
      {"smiles": "CC(=O)N[C@@H](CCC/N=C(\\N)N[N+](=O)[O-])C(=O)N[C@@H](CC(C)C)C(N)=O", "note": "(Ac-[Arg(NO2)]-Leu-NH2)", "EC50": "Not Active"}
    ]},
    {"species_on_record": "Rattus norvegicus", "assay": "In vitro vasorelaxant activity in male wistar rat thoracic aorta by classical rat aorta relaxation assay", "assay_type": "functional", "units": {"EC50": "µM"}, "values": [
      {"smiles": "COc1ccc(C(=O)N[C@@H](CCC/N=C(\\N)N[N+](=O)[O-])C(=O)N[C@@H](CC(C)C)C(N)=O)cc1", "EC50": 69},
      {"smiles": "CC(C)C[C@H](NC(=O)[C@H](CCC/N=C(\\N)N[N+](=O)[O-])NC(=O)c1ccc(OC(F)(F)F)cc1)C(N)=O", "EC50": 20},
      {"smiles": "CC(C)C[C@H](NC(=O)[C@H](CCC/N=C(\\N)N[N+](=O)[O-])NC(=O)c1ccccc1)C(N)=O", "note": "(Bz-[Arg(NO2)]-Leu-NH2)", "EC50": 400},
      {"smiles": "CC[C@H](C)[C@H](NC(=O)[C@H](CC(C)C)NC(=O)[C@@H](N)CO)C(=O)NCC(=O)N[C@@H](CCCNC(=N)N)C(=O)N[C@@H](CC(C)C)C(N)=O", "note": "(H-SLIGRL-NH2)", "EC50": 4}
    ]}
  ]
}
